Six molecules from patent US20240174695A1, “Spirocycle Containing Bicyclic Heteroaryl Compounds” (Protego Biopharma, Inc., priority 2022, published 2024) can be followed below.

This test has as its system Recombinant amyloidogenic full length light chain protein WIL-FL T46L. As to the kind of experiment: Differential Scanning Fluorimetry Assay (thermal shift assay). Note: test concentration or dose not given here. To be noted: Thermal Shift Protein Stability Kit (Biotium), 96-well plates; protein and compounds incubated at RT for 30 min before adding the dye. Format: binding. The method in brief:
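E. coli-expressed full-length WIL-FL T46L light chain pre-incubated with compound 30 min at RT before dye addition. Tm obtained by curve fitting of the dye thermal-melt signal; value is ΔTm, compound minus vehicle, in °C.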
`Cc1cc(N2CCC(C)(c3ccccc3)C2)cn2nc(CCN3CCCC4(CCN(c5nccn6cnnc56)CC4)C3=O)nc12` (stereo in doubt) [Compound 28, (R)-9-([1,2,4]triazolo[4,3-a]pyrazin-8-yl)-2-(2-(8-methyl-6-(3-methyl-3-phenylpyrrolidin-1-yl)-[1,2,4]triazolo[1,5-a]pyridin-2-yl)ethyl)-2,9-diazaspiro[5.5]undecan-1-one]: the “DSF temperature shift: [Tm]compound−[Tm]vehicle” value (shortened to “DSF temperature shift”) is given as “***** (>2.5° C.=*****)”.
In the case of `Cc1cc(OC[C@H](C)c2ccccc2)cn2nc(CCN3CC4(CCN(c5ncccn5)CC4)NC3=O)nc12` [Compound 115], the “DSF temperature shift” value is “**** (>1.5-2.5° C.=****)”.
In the case of `Cc1cc(OC[C@H](C)c2ccccc2)cn2nc(CCN3CC4(CCN(c5ncc(F)cn5)CC4)OC3=O)nc12` [Compound 114] it was “*** (>1-1.5° C.=***)”.
Then `Cc1ccc(N2CCC3(CC2)CN(CC(O)c2nc4c(C)cc(OCC5(c6ccccc6)CC5)cn4n2)C(=O)N3)cn1` (stereo not drawn) [Compound 128], with “**** (>1.5-2.5° C.=****)”; and `Cc1cc(N2CCC3(CC2)CN(CCc2nc4c(C)cc(OC[C@H](C)c5ccccc5)cn4n2)C(=O)N3)ccn1` [Compound 98], with “***** (>2.5° C.=*****)”.
Take `C[C@@H](COc1cc(CO)c2nc(C(O)CN3CC4(CN(c5ccnc(O)c5)C4)OC3=O)nn2c1)c1ccccc1` (stereo partly drawn) [Compound 145]: the “DSF temperature shift” value is recorded as “***** (>2.5° C.=*****)”.
